Laboratory results taken from US20220143050A1, “mTOR Inhibitor” (priority 2019, published 2022).
Where a name gives a salt, the structure may show the parent alone.

Tests used:
[1] = test system: LPS-stimulated peripheral blood mononuclear cell (PBMC); assay: Regulation of cytokine profile in LPS-stimulated PBMC (BioPlex / ELISA); assay type: cell-based, human; settings: for IL-10 production (ELISA) / IL-12p70 production (ELISA): PBMC pretreated 2 hours at various concentrations, 100 ng/mL LPS, supernatant 24 hours after LPS
Description: A peripheral blood mononuclear cell (PBMC) was separated from blood collected from a healthy volunteer (HV) and a chronic hepatitis B patient by a concentration gradient method. CD3+ T cell, CD19+B cell, CD56+NK cell, and CD14+ monocyte were respectively separated using magnetic antibodies.

[2] = test system: HT1080 cell stably expressing Akt 2-PH-EGFP; assay: Transition of Akt to the cell membrane, fluorescent immunochemical staining / confocal microscope; assay type: cell-based; settings: treated 2 hours, FIG. 7B
Description: AKT2-PH-EGFP tagged with HA was inserted into a pCSII-EF1α-MCS-IRES2-Blasticidin lentivirus vector. The lentivirus was infected with a HT1080 cell, and the cell was cultured in a DMEM solution containing […] of blasticidin. For observation of the intracellular migration of PH-EGFP, phosphorylated Akt, and Akt-PH-EGFP, after culturing HT1080 cell expressing each of them on a cover glass with DMSO, LAM, ADV, ETV, and TDF for 2 hours, the cell was fixed with 3.7% formalin, and thereafter nuclear staining of phosphorylated AKt (S473) and DAPI were performed to observe under a microscope.

LPS-stimulated PBMC = settings: PBMC treated ex vivo with nucleic acid analog, IFN-α and LPS; FIG. 2
Description: In the case of interferon (IFN)-α alone, 10, 100, and 1000 U/mL were used.
Many types of cytokines in the culture supernatant were measured using a Bio-Plex Human Cytokine Panel (which enables measurement at one time).
Ex vivo treatment of the PBMC was performed with a nucleic acid analog, IFN-α, and LPS, and the levels of IL-10 and IL-12p70 in the supernatant were measured.

GSK-3β = assay: Phosphorylation of GSK-3β in LPS-stimulated CD14+ monocyte (western blot); assay type: cell-based, human; settings: 2 hours treatment, 100 ng/mL LPS, 2 hours after LPS, FIG. 4E
p70S6K = assay: Phosphorylation of p70S6K in LPS-stimulated CD14+ monocyte (western blot); settings: 100 ng/mL LPS, cell collected 2 hours after LPS, FIG. 4C
Akt [3] = assay: Phosphorylation of Akt in LPS-stimulated CD14+ monocyte (western blot); assay type: cell-based, human; settings: 100 ng/mL LPS
[4] = test system: human liver cancer cell line (HepG2); assay: Phosphorylation of mTOR pathway proteins in HepG2 (western blot); assay type: cell-based; settings: for phosphorylation of Akt and S6K and 4-EBP downstream thereof: HepG2, western blot
Description: After culturing the human liver cancer cell line (HepG2) in LAM, ETV, ADV, and TDF, phosphorylation of Akt in the mTOR pathway and S6K and 4-EBP downstream thereof was analyzed by western blot. Then, the phosphorylation of the above-mentioned proteins was suppressed in ADV and TDF in a dose-dependent manner, but there was no change in LAM and ETV.

[5] = test system: mouse liver cancer cell lines (MHCF1 and MHCF5) and a mouse colon cancer cell line (CMT-93); assay: Phosphorylation of Akt and GSK-3β in mouse cancer cell lines (western blot); assay type: cell-based; settings: MHCF1, MHCF5 and CMT-93, western blotting; data not disclosed
intestinal cell = settings: in vitro system; cited from earlier work
[6] = test system: liver cancer cell lines (HepG2, PLC/PRF/5, Huh7, Hep3B, SKHep-1, HLE); assay: Antitumor effect in liver cancer cell lines, intracellular ATP amount (CellTiter-Glo); assay type: cell-based; settings: cultured 72 hours, all of the cell lines; FIG. 12
[7] = test system: phosphatidylinositol-3 kinase and phosphoinositide-dependent kinase 1; assay: Phosphorylation of proteins upstream of Akt in LPS-stimulated CD14+ monocyte (western blot); settings: pretreated 2 hours, 100 ng/mL LPS, 2 hours after LPS, FIG. 7A
Description: An Akt inhibitor 2 (Akt-1/2) and bovine serum albumin (BSA) were respectively used as a positive control and a negative control.
The phosphorylation of several proteins upstream of Akt, such as phosphatidylinositol-3 kinase and phosphoinositide-dependent kinase 1, was analyzed.

[8] = test system: CD14+ monocyte transfected with rictor siRNA; assay: IL-10 production in CD14+ monocyte after silencing rictor (mTORC2) by siRNA; assay type: cell-based, human; settings: pretreated 2 hours, 100 ng/mL LPS, ELISA 24 hours after LPS, FIG. 10
Description: The results of confirming the expression levels of rictor, raptor, and β-actin 48 hours after transfection are shown. […] Chemically synthesized nucleotide siRNA including control siRNA was obtained from Santa Cruz (Dallas, Tex., USA). A cell was transfected with siRNA using a Nucleofector kit (Lonza, Cologne, Germany).

HepG2 = assay: Subcutaneous HepG2 tumor in immunodeficient mice (NOD-SCID); assay type: in vivo, mouse; settings: 90 mg/kg intraperitoneally every 3 days; for subcutaneous tumor diameter: measured 6 weeks after, vs DMSO group, p<0.05 or p<0.005, data not disclosed
Description: 90 mg/kg of DMSO (negative control), ETV, ADV, and TDF were intraperitoneally administered to 6-week-old immunodeficient mice (NOD-SCID), respectively (5 animals in each of the groups), HepG2 (5×10^6 cells) was subcutaneously administered 1 week after the start of administration, and the subcutaneous tumor diameter was measured 6 weeks thereafter. Each drug was intraperitoneally administered every 3 days from the start to the end of observation.

IFN-λ3 = settings: hepatitis B patients taking the drug; cited from earlier work
PTEN = PTEN and pPTEN expression in CD14+ monocyte (western blot of cytosol and nuclear fractions); assay type: cell-based, human; settings: pretreated 2 hours, FIG. 9
Description: The results obtained by further fractionating the cell into a cytosol fraction and a nuclear fraction, and performing western blot analysis on each of the obtained fractions are shown. Poly-ADP-ribose polymerase (PARP) is the internal control of a nuclear protein, and β-actin is the internal control of the cytosol fraction. The number n is at least 3.
For the separation of the cytoplasm and the cell membrane, a MEM-PERTMPlus cell membrane protein extraction kit was used, and the protocol indicated by the product was followed. Briefly speaking, the collected cell was washed and then reacted with a buffer (to perforate the cell membrane) at 4° C. for 10 minutes. After centrifuging at 16,000 g for 15 minutes, the supernatant was collected in a new tube (cytoplasmic component). The precipitate (cell membrane) in the tube in the previous step was washed once with the above-mentioned buffer, and then reacted with a cell membrane melting buffer at 4° C. for 30 minutes while occasionally applying vibration. Thereafter, after centrifuging at 16,000 g for 15 minutes, the supernatant was collected in a new tube (cell membrane component). The cytoplasmic and nuclear components were separated using a cytoplasm/nuclear extraction kit. […]

Akt1 = Akt1 (Homo sapiens, UniProt P31749); assay: Surface plasmon resonance analysis of binding to Akt; settings: Akt1 fixed on CM5 sensor chip, 25° C.; FIG. 7C
Akt1, sequence (P31749 whole entry): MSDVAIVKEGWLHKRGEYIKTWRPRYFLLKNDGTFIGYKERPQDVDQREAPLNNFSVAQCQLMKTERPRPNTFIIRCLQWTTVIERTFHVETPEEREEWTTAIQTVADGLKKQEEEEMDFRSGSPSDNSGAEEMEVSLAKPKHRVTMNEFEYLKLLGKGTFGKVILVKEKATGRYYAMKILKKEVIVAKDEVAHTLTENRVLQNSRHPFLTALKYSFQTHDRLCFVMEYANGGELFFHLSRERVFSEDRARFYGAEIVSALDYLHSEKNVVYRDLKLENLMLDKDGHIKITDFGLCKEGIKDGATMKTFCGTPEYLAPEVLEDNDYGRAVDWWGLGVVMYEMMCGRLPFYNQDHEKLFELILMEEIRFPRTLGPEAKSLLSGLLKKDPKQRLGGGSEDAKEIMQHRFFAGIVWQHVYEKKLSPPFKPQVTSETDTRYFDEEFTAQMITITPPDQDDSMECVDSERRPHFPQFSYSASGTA
Description: The binding affinity of the peptide for the compound was analyzed using a surface plasmon resonance biosensor (Biacore X 100, GE Healthcare). Akt1 or BSA was fixed on the surface of a CM5 sensor chip using an amine coupling kit (GE Healthcare). Compounds at different concentrations, which were diluted with phosphate buffered saline containing 5% DMSO (10 mM phosphate buffer, 2.7 mM KCl, 137 mM NaCl, 0.05% surfactant P20, pH 7.4), were injected into the sensor chip at a flow rate of 20 μL/min at 25° C. for 120 seconds, and subsequently a buffer solution not containing the compounds was applied for 180 seconds. Kinetic parameters were determined by subtracting the bulk effect of DMSO using a reference flow cell and analyzing the data using Biacore X100 evaluation software (GE Healthcare).

ERK = settings: CD14+ monocyte, 10 μM, 2 hours, 100 ng/mL LPS, 30 minutes after LPS; FIG. 4B
Akt [9] = assay: Phosphorylation of Akt in LPS-stimulated PBMC (western blot); assay type: cell-based, human; settings: various concentrations, cell recovered 2 hours after LPS, FIG. 7E
MSK-1 = assay: Phosphorylation of MSK-1 in LPS-stimulated CD14+ monocyte (western blot); settings: 10 μM, 2 hours, 100 ng/mL LPS, 30 minutes after LPS, FIG. 4B
[10] = PBMC from HV, pretreated 2 hours with nucleic acid analog, then LPS, BioPlex cytokine assay, FIG. 1A

SMILES: CC(C)OC(=O)OCOP(=O)(CO[C@H](C)Cn1cnc2c(N)ncnc21)OCOC(=O)OC(C)C [TDF, tenofovir disoproxil fumarate]
- dose dependence of the regulation of IL-12p70, IL-10 and TNF-α ([1]; LPS-stimulated PBMC, 1:3 dilution, FIG. 1C): dose dependent
- LPS-induced IL-10 production [1, 10]: inhibited
- LPS-induced IL-12p70 production [1, 10]: significantly induced
- LPS-induced TNF-α production [1, 10]: significantly induced
- transposition of Akt-PH to the cell membrane ([2]; HT1080 cell, confocal microscope): significantly inhibited
- phosphorylation of Akt (Ser 473) in HT-1080 cell ([2]; HT-1080 cell, anti-phospho-Akt staining): inhibited
- LPS-mediated IL-12p70 production in combination with IFN-α (LPS-stimulated PBMC): synergistically enhanced
- phosphorylation of GSK-3β (GSK-3β): inhibited
- phosphorylation of p70S6K (p70S6K): inhibited
- phosphorylation of Akt, dose dependence (Akt [3]; CD14+ monocyte, 1:3 dilution, FIG. 4D): inhibited the phosphorylation of Akt in a dose-dependent manner
- phosphorylation of Akt (Akt [3]; CD14+ monocyte, cell collected 2 hours after LPS, FIG. 4C): inhibited
- phosphorylation of Akt and S6K and 4-EBP downstream thereof [4]: suppressed
- phosphorylation of mTOR-related protein (Akt and GSK-3β (S9)) ([4]; HepG2 cell, western blotting, data not disclosed): suppressed
- phosphorylation of mTOR-related protein (Akt and GSK-3β (S9)) [5]: not recognized
- IFN-λ3 induction (intestinal cell): induces
- number of a survived cell (intracellular ATP amount) [6]: significantly reduced
- phosphorylation of proteins upstream of Akt (phosphatidylinositol-3 kinase and phosphoinositide-dependent kinase 1) [7]: did not inhibit
- restoration of the decrease in IL-10 levels by silencing rictor [8]: not restored
- tumor growth in one example of the group (HepG2): did not grow at all
- subcutaneous tumor diameter (HepG2): suppressed
- serum IFN-λ3 value (IFN-λ3): high value
- PTEN or pPTEN expression level (PTEN): did not affect

SMILES: C[C@H](Cn1cnc2c(N)ncnc21)OCP(=O)(O)OP(=O)(O)O [TFV, tenofovir monophosphate]
- binding to the Akt protein (surface plasmon resonance biosensor) (Akt1): bound to the Akt protein in a dose-dependent manner

SMILES: N#CC(=C(/N)Sc1ccccc1N)/C(C#N)=C(\N)Sc1ccccc1N [U0126]
- phosphorylation of ERK (ERK): inhibited

SMILES: C=C1[C@H](CO)[C@@H](O)C[C@@H]1n1cnc2c(=O)[nH]c(N)nc21 [ETV, entecavir]
- LPS-induced cytokine production (IL-10, IL-12p70, and TNF-α) compared with DMSO [1, 10]: only the same effect as that of DMSO
- phosphorylation of Akt and S6K and 4-EBP downstream thereof [4]: no change
- number of a survived cell (intracellular ATP amount) [6]: not recognized
- subcutaneous tumor diameter (HepG2): not different

SMILES: NC(=O)c1ncn([C@@H]2O[C@H](CO)[C@@H](O)[C@H]2O)c1N [AICAR, 5-Aminoimidazole-4-carboxamide-1-β-D-ribofuranoside]
- IL-10 production (ELISA) [1]: inhibited
- IL-12p70 production (ELISA) [1]: induced
- phosphorylation of Akt (Akt [3]; CD14+ monocyte pretreated 2 hours at various concentrations, 2 hours after LPS, FIG. 11B): enhanced phosphorylation of Akt in a dose-dependent manner

SMILES: CCCCCCCCCCCCCCCCCCOP(=O)([O-])OC1CC[N+](C)(C)CC1 [perifosine]
- IL-10 production (ELISA) [1]: decreased
- IL-12p70 production (ELISA) [1]: increased
- phosphorylation of Akt (Akt [9]): inhibited phosphorylation of Akt in a dose-dependent manner

SMILES: Oc1ccc(-c2nc(-c3ccncc3)c(-c3ccc(F)cc3)[nH]2)cc1 [SB202198]
- phosphorylation of MSK-1 (MSK-1): inhibited
